Literature values in patent US8911424B2, “Methods and devices for preventing catheter related urinary tract infections” (Ethicon, Inc., priority 2011, dated 2014).

Details: aqueous solubility

[Br][Ag] [Silver Bromide]
Solubility (g/100 g H2O): 0.000014 g/100 g H2O
